Reference: paper doi:10.1101/2021.09.30.462449v1 (biorxiv, 2021)

How the values were obtained:
Experiment in all cases: biochemical
Details in all cases: read-out: % inhibition mean (Z'Lyte)
LYN A = LYN A (Homo sapiens, UniProt P07948)
MAPK8 (JNK1) = MAPK8 (JNK1) (Homo sapiens, UniProt P45983)
DNA-PK = DNA-PK (Homo sapiens, UniProt P78527)
MYLK2 (skMLCK) = MYLK2 (skMLCK) (Homo sapiens, UniProt Q9H1R3)
TXK = TXK (Homo sapiens, UniProt P42681)
INSR = INSR (Homo sapiens, UniProt P06213)
SRC N1 = SRC N1 (Homo sapiens, UniProt P12931)
Chain of SRC N1 (P12931 whole entry): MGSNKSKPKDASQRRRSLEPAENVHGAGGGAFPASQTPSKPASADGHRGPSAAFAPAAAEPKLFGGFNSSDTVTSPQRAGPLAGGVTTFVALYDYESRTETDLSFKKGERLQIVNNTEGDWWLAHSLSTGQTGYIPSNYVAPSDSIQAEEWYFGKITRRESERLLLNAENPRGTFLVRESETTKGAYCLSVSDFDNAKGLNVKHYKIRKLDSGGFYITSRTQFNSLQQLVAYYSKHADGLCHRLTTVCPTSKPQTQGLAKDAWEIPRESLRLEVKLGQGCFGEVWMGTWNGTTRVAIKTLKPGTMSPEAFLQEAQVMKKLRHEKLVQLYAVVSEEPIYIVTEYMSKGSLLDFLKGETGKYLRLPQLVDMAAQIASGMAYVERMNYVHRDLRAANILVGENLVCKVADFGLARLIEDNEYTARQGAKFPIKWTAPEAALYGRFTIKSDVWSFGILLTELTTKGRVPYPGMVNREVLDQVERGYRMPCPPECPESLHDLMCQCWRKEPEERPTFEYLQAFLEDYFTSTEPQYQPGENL

MAP3K19 (YSK4) = MAP3K19 (YSK4) (Homo sapiens, UniProt Q56UN5)
MST1R (RON) = MST1R (RON) (Homo sapiens, UniProt Q04912)
CHEK2 (CHK2) = CHEK2 (CHK2) (Homo sapiens, UniProt O96017)
Chain of CHEK2 (CHK2) (O96017 whole entry): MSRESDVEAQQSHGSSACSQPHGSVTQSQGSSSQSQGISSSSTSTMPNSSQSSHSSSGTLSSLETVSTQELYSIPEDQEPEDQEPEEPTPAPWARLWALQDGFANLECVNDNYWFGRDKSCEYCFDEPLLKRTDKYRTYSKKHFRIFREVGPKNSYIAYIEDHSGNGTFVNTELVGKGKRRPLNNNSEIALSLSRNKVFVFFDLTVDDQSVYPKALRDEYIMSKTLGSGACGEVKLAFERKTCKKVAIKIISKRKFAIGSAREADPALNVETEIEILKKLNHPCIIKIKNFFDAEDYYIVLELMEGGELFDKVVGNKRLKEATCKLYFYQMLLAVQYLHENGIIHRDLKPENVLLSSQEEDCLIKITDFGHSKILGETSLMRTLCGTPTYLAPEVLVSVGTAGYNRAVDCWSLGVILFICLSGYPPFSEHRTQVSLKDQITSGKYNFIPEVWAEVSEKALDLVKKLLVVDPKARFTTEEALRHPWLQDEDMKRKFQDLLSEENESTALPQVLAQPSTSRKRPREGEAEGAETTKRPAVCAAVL

GSK3B (GSK3 beta) = GSK3B (GSK3 beta) (Homo sapiens, UniProt P49841)
MAPK11 (p38 beta) = MAPK11 (p38 beta) (Homo sapiens, UniProt Q15759)
DYRK3 = DYRK3 (Homo sapiens, UniProt O43781)
Chain of DYRK3 (O43781 whole entry): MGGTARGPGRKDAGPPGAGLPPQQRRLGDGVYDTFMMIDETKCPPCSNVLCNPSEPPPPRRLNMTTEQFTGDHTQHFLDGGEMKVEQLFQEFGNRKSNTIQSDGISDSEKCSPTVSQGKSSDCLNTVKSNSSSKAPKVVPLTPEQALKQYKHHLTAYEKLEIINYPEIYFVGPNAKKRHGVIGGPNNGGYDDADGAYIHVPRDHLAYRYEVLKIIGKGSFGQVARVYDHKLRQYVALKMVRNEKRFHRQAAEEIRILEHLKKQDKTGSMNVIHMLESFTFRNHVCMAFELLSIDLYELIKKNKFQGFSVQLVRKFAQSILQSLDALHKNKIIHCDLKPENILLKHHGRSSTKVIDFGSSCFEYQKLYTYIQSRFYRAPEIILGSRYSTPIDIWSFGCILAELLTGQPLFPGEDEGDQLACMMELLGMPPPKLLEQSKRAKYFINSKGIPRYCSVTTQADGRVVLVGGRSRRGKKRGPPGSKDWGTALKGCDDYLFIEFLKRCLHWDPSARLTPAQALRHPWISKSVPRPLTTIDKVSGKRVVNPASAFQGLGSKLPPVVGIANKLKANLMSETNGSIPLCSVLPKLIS

PAK4 = PAK4 (Homo sapiens, UniProt O96013)
EGFR (ErbB1) = EGFR (ErbB1) (Homo sapiens, UniProt P00533)
MAP2K1 (MEK1) = MAP2K1 (MEK1) (Homo sapiens, UniProt Q02750)
EGFR (ErbB1) C797S = EGFR (ErbB1) C797S (Homo sapiens, UniProt P00533, C797S)
Chain of EGFR (ErbB1) C797S (P00533 whole entry C797S): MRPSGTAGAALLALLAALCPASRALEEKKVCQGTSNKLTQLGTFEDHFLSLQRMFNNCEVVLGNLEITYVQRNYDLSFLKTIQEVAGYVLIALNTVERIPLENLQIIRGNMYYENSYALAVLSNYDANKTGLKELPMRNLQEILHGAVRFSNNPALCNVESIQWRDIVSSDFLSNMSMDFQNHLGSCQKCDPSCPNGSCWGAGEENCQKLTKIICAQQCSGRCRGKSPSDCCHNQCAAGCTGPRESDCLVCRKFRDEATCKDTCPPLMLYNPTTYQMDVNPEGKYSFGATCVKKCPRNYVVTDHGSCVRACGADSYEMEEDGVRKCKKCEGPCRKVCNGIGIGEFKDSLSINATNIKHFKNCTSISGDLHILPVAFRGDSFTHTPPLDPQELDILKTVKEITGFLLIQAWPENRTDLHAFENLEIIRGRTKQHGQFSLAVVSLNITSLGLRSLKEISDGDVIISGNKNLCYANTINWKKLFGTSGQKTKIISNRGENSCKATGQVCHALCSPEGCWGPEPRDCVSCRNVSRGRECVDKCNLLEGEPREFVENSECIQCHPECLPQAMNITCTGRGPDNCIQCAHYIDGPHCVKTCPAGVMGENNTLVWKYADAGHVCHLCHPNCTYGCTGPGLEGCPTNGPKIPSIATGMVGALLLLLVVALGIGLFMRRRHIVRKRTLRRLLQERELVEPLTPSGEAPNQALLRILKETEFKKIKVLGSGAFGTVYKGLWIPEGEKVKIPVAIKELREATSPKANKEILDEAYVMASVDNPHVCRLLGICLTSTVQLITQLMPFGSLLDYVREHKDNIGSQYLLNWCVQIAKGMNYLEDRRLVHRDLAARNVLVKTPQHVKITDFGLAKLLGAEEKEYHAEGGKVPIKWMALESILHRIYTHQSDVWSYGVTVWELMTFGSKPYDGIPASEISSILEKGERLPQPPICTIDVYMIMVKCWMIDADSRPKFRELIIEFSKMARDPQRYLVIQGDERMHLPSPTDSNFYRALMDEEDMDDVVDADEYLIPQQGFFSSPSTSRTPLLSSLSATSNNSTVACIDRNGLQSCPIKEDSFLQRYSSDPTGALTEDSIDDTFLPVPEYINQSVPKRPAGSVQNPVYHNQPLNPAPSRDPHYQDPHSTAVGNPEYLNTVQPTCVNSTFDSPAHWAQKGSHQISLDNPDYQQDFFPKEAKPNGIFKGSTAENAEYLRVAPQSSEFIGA

FYN = FYN (Homo sapiens, UniProt P06241)
SRPK2 = SRPK2 (Homo sapiens, UniProt P78362)
Chain of SRPK2 (P78362 whole entry): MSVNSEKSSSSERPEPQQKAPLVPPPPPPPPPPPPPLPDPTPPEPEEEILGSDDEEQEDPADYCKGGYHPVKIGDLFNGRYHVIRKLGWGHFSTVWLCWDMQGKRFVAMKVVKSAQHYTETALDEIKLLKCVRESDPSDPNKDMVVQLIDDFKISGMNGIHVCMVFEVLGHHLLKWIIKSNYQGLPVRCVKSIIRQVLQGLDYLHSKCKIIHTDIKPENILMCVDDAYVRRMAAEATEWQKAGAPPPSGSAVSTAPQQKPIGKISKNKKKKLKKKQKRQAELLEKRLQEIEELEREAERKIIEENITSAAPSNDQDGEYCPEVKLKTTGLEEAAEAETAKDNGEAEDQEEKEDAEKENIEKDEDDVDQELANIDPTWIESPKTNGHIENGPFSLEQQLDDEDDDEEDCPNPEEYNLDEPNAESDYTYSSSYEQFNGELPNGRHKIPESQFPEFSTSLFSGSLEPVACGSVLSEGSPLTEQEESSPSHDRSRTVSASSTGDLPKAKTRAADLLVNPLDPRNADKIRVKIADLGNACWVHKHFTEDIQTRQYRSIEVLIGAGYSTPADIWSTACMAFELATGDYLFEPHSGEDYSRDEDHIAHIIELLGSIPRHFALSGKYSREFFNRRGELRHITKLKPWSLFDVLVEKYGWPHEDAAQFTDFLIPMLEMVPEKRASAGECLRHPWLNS

JAK3 = JAK3 (Homo sapiens, UniProt P52333)
PAK6 = PAK6 (Homo sapiens, UniProt Q9NQU5)
PRKCQ (PKC theta) = PRKCQ (PKC theta) (Homo sapiens, UniProt Q04759)
CDK18/cyclin Y = CDK18/cyclin Y (Homo sapiens, UniProt Q07002)
MAPK13 (p38 delta) = MAPK13 (p38 delta) (Homo sapiens, UniProt O15264)
PRKACA (PKA) = PRKACA (PKA) (Homo sapiens, UniProt P17612)
EGFR (ErbB1) T790M = EGFR (ErbB1) T790M (Homo sapiens, UniProt P00533, T790M)
PLK2 = PLK2 (Homo sapiens, UniProt Q9NYY3)
AMPK (A2/B1/G3) = AMPK (A2/B1/G3) (Homo sapiens, UniProt P54646)
EGFR (ErbB1) G719S = EGFR (ErbB1) G719S (Homo sapiens, UniProt P00533, G719S)

Chain of INSR (P06213 whole entry): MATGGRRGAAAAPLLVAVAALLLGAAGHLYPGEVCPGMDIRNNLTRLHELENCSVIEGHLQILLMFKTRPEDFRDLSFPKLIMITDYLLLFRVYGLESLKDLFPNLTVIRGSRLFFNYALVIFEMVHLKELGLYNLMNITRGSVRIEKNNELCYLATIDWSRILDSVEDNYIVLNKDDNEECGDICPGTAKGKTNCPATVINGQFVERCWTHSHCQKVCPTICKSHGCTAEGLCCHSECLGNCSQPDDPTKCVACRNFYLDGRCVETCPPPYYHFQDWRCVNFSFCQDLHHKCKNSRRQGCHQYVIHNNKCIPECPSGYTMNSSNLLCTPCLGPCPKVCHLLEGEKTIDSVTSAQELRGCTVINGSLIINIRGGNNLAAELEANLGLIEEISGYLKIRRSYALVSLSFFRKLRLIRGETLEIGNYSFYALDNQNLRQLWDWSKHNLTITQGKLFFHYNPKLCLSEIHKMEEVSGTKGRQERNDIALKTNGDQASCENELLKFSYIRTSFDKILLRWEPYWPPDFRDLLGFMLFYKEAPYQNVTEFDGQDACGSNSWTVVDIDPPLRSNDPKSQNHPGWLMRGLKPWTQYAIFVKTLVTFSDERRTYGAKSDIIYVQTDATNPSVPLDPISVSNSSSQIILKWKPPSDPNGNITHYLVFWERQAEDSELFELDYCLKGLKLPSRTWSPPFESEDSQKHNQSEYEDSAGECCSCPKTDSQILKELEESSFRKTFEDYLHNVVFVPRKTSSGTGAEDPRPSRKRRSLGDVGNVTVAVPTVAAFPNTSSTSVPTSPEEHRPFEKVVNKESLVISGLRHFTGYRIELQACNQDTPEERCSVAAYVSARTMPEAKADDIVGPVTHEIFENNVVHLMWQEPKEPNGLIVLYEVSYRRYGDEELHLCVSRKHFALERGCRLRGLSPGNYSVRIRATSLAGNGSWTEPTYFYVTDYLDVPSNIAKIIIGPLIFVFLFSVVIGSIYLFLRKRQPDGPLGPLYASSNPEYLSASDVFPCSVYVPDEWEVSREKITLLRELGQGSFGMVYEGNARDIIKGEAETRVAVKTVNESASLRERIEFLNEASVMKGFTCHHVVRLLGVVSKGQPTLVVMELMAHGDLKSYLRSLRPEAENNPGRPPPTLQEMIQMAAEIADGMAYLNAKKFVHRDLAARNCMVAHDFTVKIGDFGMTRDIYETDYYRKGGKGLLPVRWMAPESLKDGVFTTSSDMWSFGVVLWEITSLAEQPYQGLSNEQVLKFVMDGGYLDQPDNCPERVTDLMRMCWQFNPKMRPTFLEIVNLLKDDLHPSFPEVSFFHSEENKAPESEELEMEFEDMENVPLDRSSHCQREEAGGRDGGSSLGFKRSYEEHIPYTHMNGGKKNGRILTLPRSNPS

## COc1ccc2nc3cc(Cl)ccc3c(Nc3cc(CN4CCCC4)c(O)c(CN4CCCC4)c3)c2n1 [Pyronaridine, 4-[(7-Chloro-2-methoxybenzo[b][1,5]naphthyridin-10-yl)amino]-2,6-bis(1-pyrrolidinylmethyl)phenol phosphate (1:4)]
LYN A
  inhibition at 1 µM: -2%
MAPK8 (JNK1)
  inhibition at 1 µM: 3%
DNA-PK
  inhibition at 1 µM: 5%
MYLK2 (skMLCK)
  inhibition at 1 µM: 7%
TXK
  inhibition at 1 µM: 4%
INSR
  inhibition at 1 µM: 10%
SRC N1
  inhibition at 1 µM: 5%
MAP3K19 (YSK4)
  inhibition at 1 µM: 3%
MST1R (RON)
  inhibition at 1 µM: 2%
CHEK2 (CHK2)
  inhibition at 1 µM: 0%
GSK3B (GSK3 beta)
  inhibition at 1 µM: 8%
MAPK11 (p38 beta)
  inhibition at 1 µM: -8%
DYRK3
  inhibition at 1 µM: 1%
PAK4
  inhibition at 1 µM: 3%
EGFR (ErbB1)
  inhibition at 1 µM: -5%
MAP2K1 (MEK1)
  inhibition at 1 µM: -2%
EGFR (ErbB1) C797S
  inhibition at 1 µM: -7%
FYN
  inhibition at 1 µM: 2%
SRPK2
  inhibition at 1 µM: -4%
JAK3
  inhibition at 1 µM: 1%
PAK6
  inhibition at 1 µM: -2%
PRKCQ (PKC theta)
  inhibition at 1 µM: 8%
CDK18/cyclin Y
  inhibition at 1 µM: 1%
MAPK13 (p38 delta)
  inhibition at 1 µM: 5%
PRKACA (PKA)
  inhibition at 1 µM: 1%
EGFR (ErbB1) T790M
  inhibition at 1 µM: 2%
PLK2
  inhibition at 1 µM: 5%
AMPK (A2/B1/G3)
  inhibition at 1 µM: 2%
EGFR (ErbB1) G719S
  inhibition at 1 µM: -5%
